# Measured values: US7427640B1, “Oil materials comprising dimerdiol ester and cosmetics comprising the ester” (Nippon Fine Chemical Co., Ltd., priority 1999, dated 2008)
# Like-named read-outs stand apart in the source and are kept apart here.
# Experiments:
# Assay type in all cases: physicochemical
# [1] = Dispersability for pigment, titanium dioxide
# Excerpt: (§1) Titanium dioxide, red iron oxide and organic pigment used in the measurement are PIGMOLITE CR-50, PIGMOLITE BENGARA No. 211 and Red 202, respectively, manufactured by DAITO KASEI KOGYO Co. Ltd. The dispersability is expressed by amount (g) of the tested sample per 100 g of the pigment at wet point (W.P) and flow point (F.P).
# [2] = Dispersability for pigment, organic pigment Red No. 202
# Excerpt: as §1
# [3] = Gloss of wax-solidified ester (handy glossmeter); settings: coated on paraffin paper, intensity of reflected light at 60°
# Description: Each of the solidified product was coated on paraffin paper and gloss was measured with a handy glossmeter manufactured by HORIBA Ltd. Gloss was expressed by intensity of light reflected on the coated surface of paraffin paper at incident angle/reflection angle of 60°.
# [4] = Dispersability for pigment, red iron oxide; settings: amount of tested sample per 100 g of the pigment at wet point
# Excerpt: as §1
# [5] = Refractive index (refractometer Model 3)
# Description: Refractive index of the dimerdiol esters obtained in Examples 1, 3, 5, 7, 9 and 11 were measured. Each of the refractive index was measured at 30° C. using a refractometer Model 3 (Manufactured by ATAGO BUSSAN Ltd.).
# Refractive index of the esters obtained in Examples 28-35 were measured. Each of the refractive index was measured at 20° C. using a refractometer Model 3 (Manufactured by ATAGO BUSSAN Ltd.).
# [6] = Alkali hydrolysis resistance; settings: 0.8 g of sample heated at 80° C. for 3 hours in 25 mL of 0.05 N KOH-ethanol solution
# Description: Alkali hydrolysis resistance of the dimerdiol esters obtained in Examples 1, 3, 5, 7, 9 and 11 were measured. The alkali hydrolysis resistance was expressed by the decomposition ratio of 0.8 g of sample which was heated at 80° C. for 3 hours in 25 mL of 0.05 N of KOH-ethanol solution.
# [7] = Oxidation stability, Rancimat 676 automatic oils and fats stability test
# Excerpt: Index of the oxidation stability was expressed by the time until conductance of the trapped water started rising. […] Index of the oxidation stability was expressed by the time until conductance of the trapped water started rising.
# [8] = amount of tested sample per 100 g of the pigment at flow point
# [9] = amount of tested sample per 100 g of the pigment at wet point
# [10] = 120° C., 3 g of sample, air flow rate 20 L/Hr, time until conductance of the trapped water started rising, esters of Examples 1-12
Decomposition ratio [6] [%],Refractive index ([5]; 30° C.),Compound,"Index of oxidation stability [7, 10] [h]",other results
8,–,"CC(C)CCCCC(=O)OCC(O)CO (centres unmarked) [glyceryl isooctanoate, reference compound]",–,–
–,1.4778,dimerdiol [PESPOL HP-1000],–,–
70,1.4709,isostearic acid dimerdiol ester [Example 11],8,–

# Second part, the compound before the results:
Compound,Decomposition ratio [6] [%],Refractive index ([5]; 30° C.),"Index of oxidation stability [7, 10] [h]",other results
"CC(C)CCCCCCCCCCCCCCCOC(=O)CC(O)C(=O)OCCCCCCCCCCCCCCCC(C)C (centres unmarked) [di-iostearyl malate, di-isostearyl malate]",–,–,–,"Titanium dioxide F.P [1, 8]: 55 g; Titanium dioxide W.P [1, 9]: 26 g; Red 202 F.P [2, 8]: 200 g; Red 202 W.P [2, 9]: 106 g; Gloss, Candelira wax ([3]; solidified by compounding 20% of candelira wax): 41; Gloss, Ceresin ([3]; solidified by compounding 20% of ceresine): 35; Red iron oxide W.P [4]: 63 g; Refractive index ([5]; 20° C.): 1.4611"
erucic acid dimerdiol ester [Example 3],79,1.4719,3,–
hydrogenated rosin dimerdiol ester [Example 1],3,1.5075,6,–
long chain branched fatty acid dimerdiol ester [Example 7],–,–,–,Index of oxidation stability [7]: 4 h
mono-isostearic acid dimerdiol ester [Example 5],71,1.4659,8,–
